ChEMBL document CHEMBL5050844 (2019)

Experiments:
[1] = Induction of anti-CD3/CD28 antibodies-stimulated human T cell activation at 1 uM assessed fold increase in IL-2 secretion measured by ELISA assay; format: functional, T cell line
[2] = Induction of anti-CD3/CD28 antibodies-stimulated human T cell activation at 0.3 uM assessed fold increase in IL-2 secretion measured by ELISA assay; format: functional, T cell line
[3] = Induction of anti-CD3 antibodies-stimulated human T cell activation at 8 uM assessed fold increase in IL-2 secretion measured by ELISA assay; format: functional, T cell line; also: reference of the scale not given here
[4] = Induction of anti-CD3 antibodies-stimulated human T cell activation at 1 uM assessed fold increase in IL-2 secretion measured by ELISA assay; format: functional, T cell line; also: reference of the scale not given here
[5] = Induction of anti-CD3/CD28 antibodies-stimulated human T cell activation at 4 uM assessed fold increase in CD25 expression measured by ELISA assay; format: functional, T cell line
[6] = Induction of anti-CD3/CD28 antibodies-stimulated human T cell activation at 1 uM assessed fold increase in CD25 expression measured by ELISA assay; format: functional, T cell line
[7] = Induction of anti-CD3/CD28 antibodies-stimulated human T cell activation at 0.3 uM assessed fold increase in CD25 expression measured by ELISA assay; format: functional, T cell line
[8] = Induction of anti-CD3 antibodies-stimulated human T cell activation at 8 uM assessed fold increase in CD25 expression measured by ELISA assay; format: functional, T cell line; also: reference of the scale not given here
[9] = Induction of anti-CD3 antibodies-stimulated human T cell activation at 1 uM assessed fold increase in CD25 expression measured by ELISA assay; format: functional, T cell line; also: reference of the scale not given here
[10] = Induction of anti-CD3/CD28 antibodies-stimulated human CD4+ T cell activation at 10 uM assessed fold increase in CD69 expression measured by flow cytometry analysis; format: functional, T cell line
[11] = Induction of anti-CD3/CD28 antibodies-stimulated human CD4+ T cell activation at 1.11 uM assessed fold increase in CD69 expression measured by flow cytometry analysis; format: functional, T cell line
[12] = Induction of anti-CD3/CD28 antibodies-stimulated human CD8+ T cell activation at 1.11 uM assessed fold increase in CD69 expression measured by flow cytometry analysis; format: functional, T cell line
[13] = Induction of anti-CD3/CD28 antibodies-stimulated human CD8+ T cell activation at 10 uM assessed fold increase in cell proliferation measured by flow cytometry analysis; format: functional, T cell line
[14] = Induction of anti-CD3/CD28 antibodies-stimulated human CD8+ T cell activation at 1.11 uM assessed fold increase in cell proliferation measured by flow cytometry analysis; format: functional, T cell line
[15] = Induction of anti-CD3 antibodies-stimulated human CD4+ T cell activation at 10 uM assessed fold increase in CD69 expression measured by flow cytometry analysis; format: functional, T cell line; also: reference of the scale not given here
[16] = Induction of anti-CD3 antibodies-stimulated human CD4+ T cell activation at 1.11 uM assessed fold increase in CD69 expression measured by flow cytometry analysis; format: functional, T cell line; also: reference of the scale not given here
[17] = Induction of anti-CD3 antibodies-stimulated human CD8+ T cell activation at 10 uM assessed fold increase in CD69 expression measured by flow cytometry analysis; format: functional, T cell line; also: reference of the scale not given here
[18] = Induction of anti-CD3 antibodies-stimulated human CD8+ T cell activation at 1.11 uM assessed fold increase in cell proliferation measured by flow cytometry analysis; format: functional, T cell line; also: reference of the scale not given here
[19] = Induction of anti-CD3/CD28 antibodies-stimulated human T cell activation at 1.11 uM assessed fold increase in GM-CSF secretion measured by ELISA assay; format: functional, T cell line
[20] = Induction of anti-CD3 antibodies-stimulated human T cell activation at 10 uM assessed fold increase in GM-CSF secretion measured by ELISA assay; format: functional, T cell line; also: reference of the scale not given here
[21] = Induction of anti-CD3 antibodies-stimulated human T cell activation at 1.11 uM assessed fold increase in GM-CSF secretion measured by ELISA assay; format: functional, T cell line; also: reference of the scale not given here
[22] = Induction of anti-CD3/CD28 antibodies-stimulated human T cell activation at 10 uM assessed fold increase in TNF-alpha secretion measured by ELISA assay; format: functional, T cell line
[23] = Induction of anti-CD3 antibodies-stimulated human T cell activation at 10 uM assessed fold increase in TNF-alpha secretion measured by ELISA assay; format: functional, T cell line; also: reference of the scale not given here
[24] = Induction of anti-CD3/CD28 antibodies-stimulated human T cell activation at 1.11 uM assessed fold increase in IFN-gamma secretion measured by ELISA assay; format: functional, T cell line
[25] = Induction of anti-CD3 antibodies-stimulated human T cell activation at 10 uM assessed fold increase in IFN-gamma secretion measured by ELISA assay; format: functional, T cell line; also: reference of the scale not given here
[26] = Induction of allogenic human T cell activation at 10 uM assessed fold increase in cell proliferation; format: functional, T cell line
[27] = Induction of anti-CD3 antibodies-stimulated human exhausted T cell activation assessed fold increase in IL-2 secretion measured by ELISA assay; format: functional, T cell line; also: reference of the scale not given here
[28] = Induction of anti-CD3 antibodies-stimulated human exhausted T cell activation assessed fold increase in GM-CSF secretion measured by ELISA assay; format: functional, T cell line; also: reference of the scale not given here
[29] = Induction of anti-CD3 antibodies-stimulated human exhausted CD4+ T cell activation assessed fold increase in CTLA4 expression measured by flow cytometry analysis; format: functional, T cell line; also: reference of the scale not given here
[30] = Induction of anti-CD3 antibodies-stimulated human exhausted CD8+ T cell activation assessed fold increase in CTLA4 expression measured by flow cytometry analysis; format: functional, T cell line; also: reference of the scale not given here
[31] = Induction of anti-CD3/CD28 antibodies-stimulated human anergic T cell activation at 10 uM assessed fold increase in IFN-gamma secretion measured by ELISA assay; format: functional, T cell line
[32] = Induction of anti-CD3/CD28 antibodies-stimulated human anergic T cell activation at 0.37 uM assessed fold increase in IFN-gamma secretion measured by ELISA assay; format: functional, T cell line
B cell = experiment: Induction of anti-IgM-stimulated human CD20+ B cell activation at 10 to 1000 uM assessed as increase in CD69 expression measured as mean fluorescence intensity AUC by flow cytometry analysis; format: functional, cell-based; conditions: dose 10-1000 µM
[33] = Induction of activation of human CD56+ CD3- NK cells co-cultured with human K562 cells in 1:1 ratio and assessed as increase in IFN-gamma secretion at 10 uM measured by ELISA assay; format: functional, Natural killer cell
[34] = Induction of activation of human CD56+ CD3- NK cells co-cultured with human K562 cells in 1:1 ratio and assessed as increase in TNF-alpha secretion at 10 uM measured by ELISA assay; format: functional, Natural killer cell
[35] = Induction of activation of human CD56+ CD3- NK cells co-cultured with human K562 cells in 1:1 ratio and assessed as increase in IFN-gamma secretion at 2.5 uM measured by ELISA assay; format: functional, Natural killer cell
[36] = Induction of activation of human CD56+ CD3- NK cells co-cultured with human K562 cells in 1:1 ratio and assessed as increase in IFN-gamma secretion at 0.625 uM measured by ELISA assay; format: functional, Natural killer cell
[37] = Induction of activation of human CD56+ CD3- NK cells co-cultured with human K562 cells in 1:1 ratio and assessed as increase in TNF-alpha secretion at 0.625 uM measured by ELISA assay; format: functional, Natural killer cell

Structure (SMILES)	fold change (FC) [1]	fold change (FC) [2]	fold change (FC) [4]	fold change (FC) [6]	fold change (FC) [7]	fold change (FC) [9]	fold change (FC) [10]	fold change (FC) [11]	fold change (FC) [12]	fold change (FC) [13]	fold change (FC) [14]	fold change (FC) [15]	fold change (FC) [16]	fold change (FC) [17]	fold change (FC) [18]	fold change (FC) [26]	fold change (FC) [27]	fold change (FC) [28]	fold change (FC) [29]	fold change (FC) [30]	further results
C[C@H](c1cc2c(c(C(F)(F)F)c1)CN(c1cccc(C3(Cc4nncn4C)COC3)c1)C2=O)N1CC[C@H](F)C1	>=7.5	5	>=0.201	1.51	1.31	>=1.001	>1.601	1.401	1.201	>4	3.01	>1.601	1.401	1.401	3.01	>3	>3.01	>1.61	>1.61	>1.61	fold change (FC) [3]: >=0.201; fold change (FC) [5]: 1.31; fold change (FC) [8]: >=1.001; fold change (FC) [19]: 2.01; fold change (FC) [20]: 2.01; fold change (FC) [21]: 1.51; fold change (FC) [22]: 2.01; fold change (FC) [23]: 1.51; fold change (FC) [24]: <=2; fold change (FC) [25]: >4; fold change (FC) [31]: >4.01; fold change (FC) [32]: 2.51; AUC (B cell): 1.01; fold change (FC) [33]: >=5; fold change (FC) [34]: >=5; fold change (FC) [35]: 2.01; fold change (FC) [36]: 2.01; fold change (FC) [37]: 2.01
C[C@@H](Sc1nncn1C)c1cccc(NC(=O)c2cccc(C(F)(F)F)n2)c1	1.01	1.01	0.051	1.01	1.01	<=0.6	1.401	1.201	<=1.2	>4	2.01	1.401	>1.601	1.201	3.01	<=2	<=2.5	<=1.4	<=1.4	<=1.4	fold change (FC) [3]: 0.051; fold change (FC) [5]: 1.01; fold change (FC) [8]: 0.601; fold change (FC) [31]: <=2.5; fold change (FC) [32]: <=2.5; AUC (B cell): < 0.5; fold change (FC) [33]: 1.01; fold change (FC) [34]: 1.01; fold change (FC) [35]: 1.01; fold change (FC) [36]: <=1; fold change (FC) [37]: 1.01
C[C@H](Cc1nncn1C)c1cccc(NC(=O)c2cccc(CCO)n2)c1	1.01	1.01	0.051	1.01	1.01	<=0.6	1.201	<=1.2	<=1.2	2.01	<=2	1.201	<=1.2	<=1.2	<=2	<=2	<=2.5	<=1.4	<=1.4	<=1.4	fold change (FC) [3]: 0.151; fold change (FC) [5]: 1.31; fold change (FC) [8]: 0.801; fold change (FC) [19]: <=1.5; fold change (FC) [20]: 1.51; fold change (FC) [21]: <=1.5; fold change (FC) [22]: 1.51; fold change (FC) [23]: <=1.5; fold change (FC) [24]: <=2; fold change (FC) [25]: <=2; fold change (FC) [31]: 2.51; fold change (FC) [32]: <=2.5; AUC (B cell): 1.01; fold change (FC) [33]: 2.01; fold change (FC) [34]: 1.01; fold change (FC) [35]: 1.01; fold change (FC) [36]: 1.01; fold change (FC) [37]: <=1
COC1CN(Cc2cc3c(c(C(F)(F)F)c2)CN(c2cccc([C@@](C)(F)C(F)(F)c4nncn4C)c2)C3=O)C1	5	2.51	0.151	1.31	1.01	>=1.001	1.401	1.201	1.201	>4	3.01	>1.601	1.401	1.401	3.01	<=2	<=2.5	>1.61	>1.61	>1.61	fold change (FC) [3]: >=0.201; fold change (FC) [5]: 1.31; fold change (FC) [8]: >=1.001; fold change (FC) [19]: 2.01; fold change (FC) [20]: 2.01; fold change (FC) [21]: 1.51; fold change (FC) [22]: 2.01; fold change (FC) [23]: 1.51; fold change (FC) [24]: <=2; fold change (FC) [25]: 3.01; fold change (FC) [31]: >4.01; fold change (FC) [32]: <=2.5; fold change (FC) [33]: >=5; fold change (FC) [34]: >=5; fold change (FC) [35]: >=5; fold change (FC) [36]: 2.01; fold change (FC) [37]: 1.01
Cn1cnnc1CC1(c2cccc(N3Cc4c(cc(CN5CCC6(CC6)C5)cc4C(F)(F)F)C3=O)c2)COC1	>=7.5	>=7.5	>=0.201	1.31	1.31	>=1.001	>1.601	>1.601	1.201	>4	>4	>1.601	>1.601	1.401	>4	>3	2.51	1.41	>1.61	>1.61	fold change (FC) [19]: >4; fold change (FC) [20]: >4; fold change (FC) [21]: 2.01; fold change (FC) [22]: >4; fold change (FC) [23]: 2.01; fold change (FC) [24]: >4; fold change (FC) [25]: >4; fold change (FC) [31]: >4.01; fold change (FC) [32]: <=2.5; AUC (B cell): > 1.51; fold change (FC) [33]: >=5; fold change (FC) [34]: >=5; fold change (FC) [35]: >=5; fold change (FC) [36]: 2.01; fold change (FC) [37]: 2.01
